Converted amounts (≈) assume the structure as drawn.
Tests used:
Assay type in all cases: functional
[1] = system: Enterococcus faecalis; assay: Antibacterial activity against Enterococcus faecalis ATCC 25912 after 16 to 20 hrs by broth microdilution method
[2] = system: Staphylococcus aureus; assay: Antibacterial activity against Staphylococcus aureus […] after 16 to 20 hrs by broth microdilution method
[3] = system: Enterobacter cloacae; assay: Antibacterial activity against Enterobacter cloacae CIP 103475 after 16 to 20 hrs by broth microdilution method
[4] = system: Staphylococcus aureus; assay: Antibacterial activity against methicillin-resistant Staphylococcus aureus ATCC 43300 after 16 to 20 hrs by broth microdilution method
[5] = system: Pseudomonas aeruginosa; assay: Antibacterial activity against Pseudomonas aeruginosa CIP 82118 after 16 to 20 hrs by broth microdilution method
[6] = system: Escherichia coli; assay: Antibacterial activity against Escherichia coli ATCC 25922 after 16 to 20 hrs by broth microdilution method
[7] = system: Citrobacter freundii; assay: Antibacterial activity against Citrobacter freundii CIP 5732 after 16 to 20 hrs by broth microdilution method
[8] = system: Escherichia coli; assay: Antibacterial activity against Escherichia coli ATCC 35218 after 16 to 20 hrs by broth microdilution method
[9] = system: Proteus vulgaris; assay: Antibacterial activity against Proteus vulgaris CIP 104989 after 16 to 20 hrs by broth microdilution method
[10] = system: Klebsiella pneumoniae; assay: Antibacterial activity against Klebsiella pneumoniae CIP 53153 after 16 to 20 hrs by broth microdilution method

| Compound | MIC [1] | MIC [2] | MIC [3] | MIC [4] | MIC [5] | MIC [6] | MIC [7] | MIC [8] | MIC [9] | MIC [10] |
| --- | --- | --- | --- | --- | --- | --- | --- | --- | --- | --- |
| Oc1ccc2ccccc2c1C(c1cccs1)n1nnc2ccccc21 (stereo not given) | > 512 µg/mL | 16 µg/mL (≈ 44.8 µM) | > 512 µg/mL | 16 µg/mL (≈ 44.8 µM) | > 512 µg/mL | > 512 µg/mL | > 512 µg/mL | > 512 µg/mL | > 512 µg/mL | > 512 µg/mL |
| CC1(C)S[C@@H]2[C@H](NC(=O)[C@H](N)c3ccc(O)cc3)C(=O)N2[C@H]1C(=O)O [AMOXICILLIN] | 0.25 µg/mL (≈ 0.684 µM) | 0.06 µg/mL (≈ 0.164 µM) | 256 µg/mL (≈ 701 µM) | 8 µg/mL (≈ 21.9 µM) | > 512 µg/mL | 2 µg/mL (≈ 5.47 µM) | 125 µg/mL (≈ 342 µM) | 2 µg/mL (≈ 5.47 µM) | 256 µg/mL (≈ 701 µM) | 256 µg/mL (≈ 701 µM) |

From ChEMBL document CHEMBL3792360, “Antibacterial activity of Mannich bases derived from 2-naphthols, aromatic aldehydes and secondary aliphatic amines” (2016)
